Entries after “also recorded” stand apart in the source; their conditions may differ.

In general, EC50 refers to the concentration at which the effect is half-maximal.

The target of assay [1] is T1, GPR43 (Homo sapiens, UniProt O15552).
T1 sequence (O15552 1-330): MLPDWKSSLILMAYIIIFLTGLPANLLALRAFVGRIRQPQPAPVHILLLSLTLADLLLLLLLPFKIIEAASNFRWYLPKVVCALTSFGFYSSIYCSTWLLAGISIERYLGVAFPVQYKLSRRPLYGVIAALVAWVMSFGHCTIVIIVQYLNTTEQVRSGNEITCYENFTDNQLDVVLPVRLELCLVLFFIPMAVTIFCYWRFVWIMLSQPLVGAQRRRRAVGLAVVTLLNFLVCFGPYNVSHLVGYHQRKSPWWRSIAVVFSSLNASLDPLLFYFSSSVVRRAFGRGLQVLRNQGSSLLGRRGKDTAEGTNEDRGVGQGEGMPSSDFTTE
The assay can be described thus: GPR43 activation by fatty acids (FIG. 2). The format is cell-based. The following applies: for concentration at which GPR43 is activated: FIG. 2. The source says: An activated or inhibited G-protein will in turn alter the properties of downstream effectors such as proteins, enzymes, and channels. The classic examples are the activation of cGMP phosphodiesterase by transducin in the visual system, adenylate cyclase by the stimulatory G-protein, phospholipase C by Gq and other cognate G proteins, and modulation of diverse channels by Gi and other G proteins. Downstream consequences such as generation of diacyl glycerol and IP3 by phospholipase C, and in turn, for calcium mobilization e.g., by IP3 (further discussed below) can also be examined. Thus, modulators can be evaluated for the ability to stimulate or inhibit ligand-mediated downstream effects. […] Candidate modulators may be assessed for the ability to inhibit inositol phosphate accumulation and/or calcium mobilization induced by the natural ligand, e.g., β-alanine (TGR2), a 2–3 carbon chain fatty acid (GPR43), a medium or long chain fatty acid (GPR40), succinic acid (TGR18), or a-ketoglutaric acid (TGR164).
A battery of fatty acids were tested for the ability to activate GPR43.

In assay [2] the target is T2, TGR18 (Homo sapiens, UniProt Q9BXA5).
T2 sequence (Q9BXA5 with tags, fused parts or gaps limits assumed): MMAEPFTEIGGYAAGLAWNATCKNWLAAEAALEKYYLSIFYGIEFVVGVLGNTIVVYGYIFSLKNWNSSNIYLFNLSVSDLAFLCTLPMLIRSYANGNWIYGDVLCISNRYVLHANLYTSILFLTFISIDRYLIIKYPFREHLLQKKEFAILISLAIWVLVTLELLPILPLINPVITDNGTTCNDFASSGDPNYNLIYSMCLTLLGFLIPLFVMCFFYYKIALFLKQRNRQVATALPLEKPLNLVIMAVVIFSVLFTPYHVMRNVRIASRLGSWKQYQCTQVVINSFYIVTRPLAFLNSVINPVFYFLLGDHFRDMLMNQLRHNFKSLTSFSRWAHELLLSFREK
The assay can be described thus: Inositol phosphate accumulation assay, 293 cells stably expressing TGR18. The assay is classed as cell-based. Set-up: expressed in transfected cells; transient for CRE-luciferase. Conditions: 45 minutes stimulation. Here is the method: The ability of various ligands to increase inositol phosphate was also assessed. For this analysis, 293 cells stably expression TGR18 were incubated in inositol-free DMEM/10% dialyzed FCS/1 μCi/ml ^3H-inositol for 16 hours. Following incubation 10 mM LiCi was added to the cells for 15 minutes. Cells were then stimulated with various ligands for 45 minutes and extracted with ice-cold 20 mM formic acid. H3-inositol phosphate was collected on Dowex ion-exchange column (formate form) and radioactivity recorded by Topcount scintillation counter.

The target of assay [3] is T3, TGR164 (Homo sapiens, UniProt Q96P68).
T3 construct: expressed in transfected cells; also 'various cell lines'
The assay is described as follows: Aequorin assay, TGR164. The assay is classed as cell-based. Conditions: for activation of TGR164 in Aequorin assay: FIGS. 7A and 7B.

Assay [4] deals with T3, TGR164. The assay is described as follows: Inositol phosphate accumulation assay, TGR164. The assay is classed as cell-based.
Assay [5] has as its target T2, TGR18. The assay is described as follows: FLIPR intracellular calcium assay, 293 cells stably expressing TGR18. The assay is classed as cell-based. On the set-up: expressed in transfected cells; transient for CRE-luciferase. Conditions: for activation of TGR18 in FLIPR assay: FIG. 6C. Here is the method:
Mobilization of intracellular calcium in response to various ligands was also evaluated using a FLIPR assay. In this assay, 293 cells stably expressing TGR18 were seeded into 384-well plates and incubated at 37° C. overnight. The growth medium was then aspirated and replaced with 50 μl loading medium (FLIPR no-wash kit, Molecular Devices) and incubated at 37° C. for 1 hour. The cells were placed in a fluorometric imaging plate reader (FLIPR), and changes in cellular fluorescence were recorded after the addition of 25 μl of various ligands diluted in FLIPR buffer (FLIPR no-wash kit, Molecular Devices). Analogs of succinic acid that activated TGR18 include succinic acid, maleic acid, oxalacetic acid, methylmalonic acid and itaconic acid (FIG. 6C).
Background: Calcium assays in cells follow changes in intracellular calcium, usually with a dye or a luminescent sensor.

For assay [6], the target named is Human TGR18 (Homo sapiens, UniProt Q9BXA5). Conditions: FIG. 6A. Here is the method:
(§1) In order to examine the ability of a compound to activate TGR18, CHO cells were transiently transfected with 10 μg of the GPCR and 10 μg Aequorin reporter gene in a 150 mm dish. As a negative control, the same amount of empty vector and the Aequorin reporter were cotransfected into CHO cells. After 24 hours, cells were harvested and resuspended in Aequorin buffer (Hank's buffered saline with 20 mM Hepes, pH7.6 and 0.1% BSA) containing 1 μg/ml coelenterazine f and incubated at room temperature for a further 2 hours. The Aequorin luminescence was recorded on Microlumat after injecting 100 μl of cells into 100 μl of ligand prepared in Aequorin buffer.

Assay [7] addresses mouse TGR18 (Mus musculus, UniProt Q99MT6). Conditions: FIG. 6A. Here is the method:
as §1

Assay [8] deals with rat TGR18 (Rattus norvegicus, UniProt Q6IYF9). The following applies: FIG. 6A. Here is the method: as §1
Assay [9] deals with thirty other GPCRs. Conditions: at 100 μM. Here is the method:
as §1

The target of assay [10] is T2, TGR18. The following applies: 293 cells; 6 hours. Here is the method:
The ability of a ligand to induce TGR18-mediated activation of a CRE-luciferase reporter was also evaluated. For this assay, 293 cells were transiently transfected with CRE-luciferase reporter, tk-renila luciferase reporter and TGR18 plasmid. Succinic acid was then added to the cell culture supernatants and incubated for a further 6 hours. The luminescence were recorded on CLIPR after cell lysis as illustrated in Dual-luciferase assay kit (Promega).

The target of assay [11] is T2, TGR18. The assay can be described thus: TGR18 ligand activity, assay not specified (introduction). The assay is classed as cell-based. Set-up: expressed in transfected cells; transient for CRE-luciferase.
In assay [12] the test system is 40 other orphan GPCRs. The following applies: at 10 μM.
Assay [13] deals with T4, TGR2 (Homo sapiens, UniProt Q8TDS7).
In assay [14] the target is mMrgD (Mus musculus, UniProt Q91ZB8).
In assay [15] the target is T4, TGR2. The assay is described as follows: Aequorin assay, CHO cells transiently transfected with TGR2. The assay is classed as cell-based. Set-up: expressed in transfected cells; host or cells: CHO cells, transient.
The target of assay [16] is T5, GPR77 (Homo sapiens, UniProt Q9P296).
T5 construct: expressed in transfected cells
The assay can be described thus: Competitive binding assay, membrane binding format, cells transiently transfected with GPR77. The source says:
GPR77 was transiently transfected into cells.

T4 sequence (Q8TDS7 whole entry): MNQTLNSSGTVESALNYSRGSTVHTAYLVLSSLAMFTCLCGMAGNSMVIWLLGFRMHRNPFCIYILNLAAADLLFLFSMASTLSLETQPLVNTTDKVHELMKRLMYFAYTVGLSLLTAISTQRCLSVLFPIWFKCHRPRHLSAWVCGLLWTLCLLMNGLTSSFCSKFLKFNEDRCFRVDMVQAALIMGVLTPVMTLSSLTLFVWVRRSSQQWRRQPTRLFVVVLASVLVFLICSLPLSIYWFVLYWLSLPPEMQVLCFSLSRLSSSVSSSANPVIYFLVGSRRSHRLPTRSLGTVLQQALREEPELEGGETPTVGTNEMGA
T5 sequence (Q9P296 whole entry): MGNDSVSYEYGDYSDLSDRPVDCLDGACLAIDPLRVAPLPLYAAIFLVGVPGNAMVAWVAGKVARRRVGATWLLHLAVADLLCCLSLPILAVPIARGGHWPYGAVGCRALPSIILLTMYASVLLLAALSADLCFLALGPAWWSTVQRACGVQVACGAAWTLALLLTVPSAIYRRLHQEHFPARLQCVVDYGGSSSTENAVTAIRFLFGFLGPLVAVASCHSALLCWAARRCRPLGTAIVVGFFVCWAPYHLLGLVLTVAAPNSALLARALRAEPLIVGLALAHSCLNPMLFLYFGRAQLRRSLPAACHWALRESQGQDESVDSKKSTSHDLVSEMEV
Chain of mouse TGR18 (Q99MT6 whole entry): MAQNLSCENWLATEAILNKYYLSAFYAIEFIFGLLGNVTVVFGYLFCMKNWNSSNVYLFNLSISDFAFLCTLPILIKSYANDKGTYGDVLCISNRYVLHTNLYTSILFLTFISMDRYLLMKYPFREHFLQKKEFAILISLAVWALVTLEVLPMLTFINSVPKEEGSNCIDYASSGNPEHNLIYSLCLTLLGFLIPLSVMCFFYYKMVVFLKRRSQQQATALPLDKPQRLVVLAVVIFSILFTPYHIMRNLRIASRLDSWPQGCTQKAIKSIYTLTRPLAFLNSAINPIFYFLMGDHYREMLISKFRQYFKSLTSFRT
Chain of mMrgD (Q91ZB8 whole entry): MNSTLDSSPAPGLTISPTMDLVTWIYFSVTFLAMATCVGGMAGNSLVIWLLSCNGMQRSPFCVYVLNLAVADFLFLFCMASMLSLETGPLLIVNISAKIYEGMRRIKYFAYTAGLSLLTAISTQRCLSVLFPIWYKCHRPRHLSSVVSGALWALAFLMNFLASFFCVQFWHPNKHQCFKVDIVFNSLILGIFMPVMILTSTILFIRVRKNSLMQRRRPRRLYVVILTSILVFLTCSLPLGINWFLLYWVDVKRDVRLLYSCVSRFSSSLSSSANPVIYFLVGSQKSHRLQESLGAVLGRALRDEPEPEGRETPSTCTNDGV
Chain of rat TGR18 (Q6IYF9 whole entry): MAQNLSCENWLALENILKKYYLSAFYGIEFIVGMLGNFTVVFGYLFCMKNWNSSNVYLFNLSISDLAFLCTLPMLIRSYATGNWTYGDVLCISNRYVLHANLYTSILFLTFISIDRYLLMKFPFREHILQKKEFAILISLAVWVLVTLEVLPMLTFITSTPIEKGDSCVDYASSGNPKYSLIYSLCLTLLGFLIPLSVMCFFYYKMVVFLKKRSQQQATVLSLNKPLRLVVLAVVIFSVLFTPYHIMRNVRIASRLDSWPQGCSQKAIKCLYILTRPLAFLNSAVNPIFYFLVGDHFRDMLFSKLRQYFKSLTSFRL

`CC(=O)O` [acetate]: the “concentration at which GPR43 is activated” value in [1] is given as “about 140 μM”.
In the case of `O=C(O)/C=C/C(=O)O` [fumaric acid], the “increase of inositol phosphate levels, TGR18” value in assay [2] was “did not”.
Turning to `CCCCCCC(=O)O` [heptanoeate], the “activation of GPR43” value in assay [1] is “do not activate”.
As to `C=C(CC(=O)O)C(=O)O` [itaconic acid], the “activation of TGR164 in Aequorin assay” value in assay [3] is listed as “activated”. The “inositol phosphate accumulation, TGR164” value in assay [4] is reported as “observed”. Further, the “activation of TGR18 in FLIPR assay” value in assay [5] was “activated”.
For the compound `O=C(O)/C=C\C(=O)O` [maleic acid], the “activation of TGR18 in FLIPR assay” value in assay [5] is reported as “activated”.
The same measure, in the same setting: as for `CC(C(=O)O)C(=O)O` [methylmalonic acid], the entry is “activated”.
In the case of `CCCCCCCC(=O)O` [octanoate], the “activation of GPR43” value in assay [1] is listed as “do not activate”.
Take `O=C(O)CC(=O)C(=O)O` [oxalacetic acid]: the “activation of TGR18 in FLIPR assay” value in [5] is listed as “activated”.
On to `CCCCC(=O)O` [pentanoate], for which the “activation of GPR43” value in assay [1] was “do not activate”.
Regarding `CCC(=O)O` [propionate], the “concentration at which GPR43 is activated” value in assay [1] is reported as “about 140 μM”.
Regarding `O=C(O)CCC(=O)O` [succinic acid], the “activation of human TGR18 in Aequorin assay” value in assay [6] is “activated”. In addition, the “activation of mouse TGR18 in Aequorin assay” value in assay [7] is on record as “activated”. In assay [8], the “activation of rat TGR18 in Aequorin assay” value is given as “activated”. For the same compound, the “activation of thirty other GPCRs” value in assay [9] is “does not activate”. The “TGR18-mediated activation of CRE-luciferase reporter” value in assay [10] was “induced”. For the same compound, the EC50 in assay [5] (293 cells stably expressing TGR18, FIG. 6B, read-out: EC50 of TGR18 activation in FLIPR assay) was roughly 27 µM. Further, the “activation of TGR18 in FLIPR assay” value in [5] is recorded as “activated”. For the same compound, the “increase of inositol phosphate levels, TGR18” value in assay [2] was “increased inositol phosphate levels”.
For the compound `O=C1CCC(=O)O1` [succinic anhydride], in [11], the “ligand for / activation of TGR18” value is reported as “ligands for TGR18”.
In the case of `O=C(O)CCC(=O)C(=O)O` [α-ketoglutaric acid], the “activation of TGR164 in Aequorin assay” value in assay [3] is listed as “TGR164 ligand”. Also, the “activation of TGR164 in Aequorin assays in multiple cell lines” value in assay [3] (multiple cell lines) is “activates”. Besides, the “inositol phosphate accumulation, TGR164” value in assay [4] was “observed”.
In the case of `NCCC(=O)O` [β-alanine], the “activation of 40 other orphan GPCRs” value in assay [12] is on record as “did not activate”. Also, the “activation of TGR2 in inositol phosphate accumulation assay” value in assay [13] is “activated”. The “activation of mouse ortholog mMrgD in Aequorin assay” value in assay [14] was “specifically activated”. The same compound had a half-maximal effective concentration (EC50) in assay [15] (CHO cells transiently transfected with TGR2, FIG. 1) of 9.1 µM. The “activation of TGR2 (increase in intracellular calcium), library screen” value in assay [15] (at 10 μM) is “positive hit”.
Take “ASP: Acylation stimulating protein, identical to the desarginated form of complement C3a, i.e., C3adesArg”: in [16], the “binding to GPR77, competition with C5a and C3a” value is “shown to bind to GPR77; also recorded: competed with C5a and C3a”.

Source of the values: US7056685B1, “Receptor ligands and methods of modulating receptors” (Amgen Inc., priority 2002, dated 2006).
